The record followed here is PubChem BioAssay AID248 (DTP/NCI, 2004).

The test has as its system L1210 leukemia ip in BDF1 mice, survival T/C. The test can be described thus: NCI In Vivo Anticancer Drug Screen. Data for tumor model L1210 Leukemia (intraperitoneal) in B6D2F1 (BDF1) mice. The conditions noted are these: higher = longer survival. The method, boiled down: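 Mice bearing the transplanted tumor received compound or vehicle. Survival of the treated group was divided by that of the vehicle-treated control group to give the ratio.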

Setting [1] is: endpoint: mean survival time, dose: 200.0 mg/kg/injection, schedule: Q04DX003 (ip), vehicle: saline with Tween-80.
Where [2] appears, read: endpoint: mean survival time, dose: 100.0 mg/kg/injection, schedule: Q01DX001 (ip), vehicle: carboxymethylcellulose (CMC).
The mark [3] stands for this setting: endpoint: mean survival time, dose: 200.0 mg/kg/injection, schedule: Q01DX001 (ip), vehicle: carboxymethylcellulose (CMC).
[4] abbreviates: endpoint: mean survival time, dose: 100.0 mg/kg/injection, schedule: Q01DX009 (ip), vehicle: Klucel (hydroxypropylcellulose) (HPC).
The mark [5] stands for this setting: endpoint: mean survival time, dose: 200.0 mg/kg/injection, schedule: Q01DX009 (ip), vehicle: Klucel (hydroxypropylcellulose) (HPC).
The mark [6] stands for this setting: endpoint: mean survival time, dose: 400.0 mg/kg/injection, schedule: Q01DX009 (ip), vehicle: Klucel (hydroxypropylcellulose) (HPC).
[7] abbreviates: endpoint: mean survival time, dose: 100.0 mg/kg/injection, schedule: Q04DX003 (ip), vehicle: Klucel (hydroxypropylcellulose) (HPC).
The mark [8] stands for this setting: endpoint: mean survival time, dose: 200.0 mg/kg/injection, schedule: Q04DX003 (ip), vehicle: Klucel (hydroxypropylcellulose) (HPC).
The mark [9] stands for this setting: endpoint: mean survival time, dose: 400.0 mg/kg/injection, schedule: Q04DX003 (ip), vehicle: Klucel (hydroxypropylcellulose) (HPC).
[10] abbreviates: endpoint: mean survival time, dose: 100.0 mg/kg/injection, schedule: Q04DX003 (ip), vehicle: saline with Tween-80.
The mark [11] stands for this setting: endpoint: mean survival time, dose: 400.0 mg/kg/injection, schedule: Q04DX003 (ip), vehicle: saline with Tween-80.
The mark [12] stands for this setting: endpoint: mean survival time, dose: 100.0 mg/kg/injection, schedule: Q01DX009 (ip), vehicle: saline with Tween-80.
[13] abbreviates: endpoint: mean survival time, dose: 200.0 mg/kg/injection, schedule: Q01DX009 (ip), vehicle: saline with Tween-80.

“And” between values parts separate entries of the source, which are not always exact repeats. Equal values may be shown once. Inconclusive results and toxic doses are left out.

On to `CCC(C)N(C)/N=N/c1nc[nH]c1C(N)=O` (stereo not drawn), for which the T/C is 110 % of control (endpoint: mean survival time, dose: 11.0 mg/kg/injection, schedule: Q01DX009 (ip), vehicle: Klucel (hydroxypropylcellulose) (HPC)); 123 % of control (endpoint: mean survival time, dose: 16.7 mg/kg/injection, schedule: Q01DX009 (ip), vehicle: Klucel (hydroxypropylcellulose) (HPC)); 124 % of control (endpoint: mean survival time, dose: 16.8 mg/kg/injection, schedule: Q01DX009 (ip), vehicle: Klucel (hydroxypropylcellulose) (HPC)); 124 % of control (endpoint: mean survival time, dose: 25.0 mg/kg/injection, schedule: Q01DX009 (ip), vehicle: Klucel (hydroxypropylcellulose) (HPC)); 121 % of control (endpoint: mean survival time, dose: 25.0 mg/kg/injection, schedule: Q04DX003 (ip), vehicle: water); 159 % of control (endpoint: mean survival time, dose: 38.0 mg/kg/injection, schedule: Q01DX009 (ip), vehicle: Klucel (hydroxypropylcellulose) (HPC)). Also, the T/C (endpoint: mean survival time, dose: 50.0 mg/kg/injection, schedule: Q01DX001 (ip), vehicle: water) was 101 % of control; the T/C (endpoint: mean survival time, dose: 50.0 mg/kg/injection, schedule: Q01DX009 (ip), vehicle: water) is 154 % of control; the T/C (endpoint: mean survival time, dose: 50.0 mg/kg/injection, schedule: Q04DX003 (ip), vehicle: water) is 106 % of control; the T/C (endpoint: mean survival time, dose: 58.0 mg/kg/injection, schedule: Q01DX009 (ip), vehicle: Klucel (hydroxypropylcellulose) (HPC)) is 159 % of control; the T/C (endpoint: mean survival time, dose: 88.0 mg/kg/injection, schedule: Q01DX009 (ip), vehicle: Klucel (hydroxypropylcellulose) (HPC)) was 150 % of control and 186 % of control; the T/C (endpoint: mean survival time, dose: 100.0 mg/kg/injection, schedule: Q01DX001 (ip), vehicle: water) is 110 % of control. For the same compound, the T/C reads like this: (endpoint: mean survival time, dose: 100.0 mg/kg/injection, schedule: Q01DX009 (ip), vehicle: water) 120 % of control; (endpoint: mean survival time, dose: 100.0 mg/kg/injection, schedule: Q04DX003 (ip), vehicle: water) 110 % of control; (endpoint: mean survival time, dose: 133.0 mg/kg/injection, schedule: Q01DX009 (ip), vehicle: Klucel (hydroxypropylcellulose) (HPC)) 106 % of control; (endpoint: mean survival time, dose: 133.0 mg/kg/injection, schedule: Q04DX003 (ip), vehicle: saline with Tween-80) 116 % of control and 124 % of control; (endpoint: mean survival time, dose: 200.0 mg/kg/injection, schedule: Q01DX001 (ip), vehicle: water) 109 % of control; under setting [1], 121 % of control. The T/C by setting is: (endpoint: mean survival time, dose: 200.0 mg/kg/injection, schedule: Q04DX003 (ip), vehicle: water) 106 % of control; (endpoint: mean survival time, dose: 300.0 mg/kg/injection, schedule: Q04DX003 (ip), vehicle: saline with Tween-80) 157 % of control; (endpoint: mean survival time, dose: 400.0 mg/kg/injection, schedule: Q04DX003 (ip), vehicle: water) 94 % of control; (endpoint: median survival time, dose: 25.0 mg/kg/injection, schedule: Q01DX009 (ip), vehicle: Klucel (hydroxypropylcellulose) (HPC)) 115 % of control; (endpoint: median survival time, dose: 50.0 mg/kg/injection, schedule: Q01DX009 (ip), vehicle: Klucel (hydroxypropylcellulose) (HPC)) 155 % of control; (endpoint: median survival time, dose: 75.0 mg/kg/injection, schedule: Q01DX009 (ip), vehicle: Klucel (hydroxypropylcellulose) (HPC)) 155 % of control. The T/C by setting is: (endpoint: median survival time, dose: 100.0 mg/kg/injection, schedule: Q01DX009 (ip), vehicle: Klucel (hydroxypropylcellulose) (HPC)) 155 % of control; (endpoint: median survival time, dose: 100.0 mg/kg/injection, schedule: Q04DX003 (ip), vehicle: Klucel (hydroxypropylcellulose) (HPC)) 110 % of control; (endpoint: median survival time, dose: 200.0 mg/kg/injection, schedule: Q04DX003 (ip), vehicle: Klucel (hydroxypropylcellulose) (HPC)) 120 % of control; (endpoint: median survival time, dose: 300.0 mg/kg/injection, schedule: Q04DX003 (ip), vehicle: Klucel (hydroxypropylcellulose) (HPC)) 120 % of control; (endpoint: median survival time, dose: 400.0 mg/kg/injection, schedule: Q04DX003 (ip), vehicle: Klucel (hydroxypropylcellulose) (HPC)) 100 % of control.

Turning to `CCC(CCl)NC(=O)N(N=O)C(CC)CCl` (stereo not drawn), the T/C runs as follows: (endpoint: mean survival time, dose: 16.0 mg/kg/injection, schedule: Q01DX001 (ip), vehicle: carboxymethylcellulose (CMC)) 96 % of control; (endpoint: mean survival time, dose: 31.0 mg/kg/injection, schedule: Q01DX001 (ip), vehicle: carboxymethylcellulose (CMC)) 102 % of control; (endpoint: mean survival time, dose: 62.0 mg/kg/injection, schedule: Q01DX001 (ip), vehicle: carboxymethylcellulose (CMC)) 95 % of control; (endpoint: mean survival time, dose: 125.0 mg/kg/injection, schedule: Q01DX001 (ip), vehicle: carboxymethylcellulose (CMC)) 101 % of control; (endpoint: mean survival time, dose: 250.0 mg/kg/injection, schedule: Q01DX001 (ip), vehicle: carboxymethylcellulose (CMC)) 91 % of control; (endpoint: mean survival time, dose: 375.0 mg/kg/injection, schedule: Q01DX001 (ip), vehicle: carboxymethylcellulose (CMC)) 91 % of control. In addition, the T/C runs as follows: (endpoint: mean survival time, dose: 500.0 mg/kg/injection, schedule: Q01DX001 (ip), vehicle: carboxymethylcellulose (CMC)) 101 % of control; (endpoint: mean survival time, dose: 750.0 mg/kg/injection, schedule: Q01DX001 (ip), vehicle: carboxymethylcellulose (CMC)) 91 % of control; (endpoint: mean survival time, dose: 1000.0 mg/kg/injection, schedule: Q01DX001 (ip), vehicle: carboxymethylcellulose (CMC)) 93 % of control; (endpoint: mean survival time, dose: 1500.0 mg/kg/injection, schedule: Q01DX001 (ip), vehicle: carboxymethylcellulose (CMC)) 98 % of control.

For the compound `N/N=C1\c2ccccc2-c2cc([N+](=O)[O-])ccc21`, the T/C was 104 % of control under setting [2] and 95 % of control under setting [3].

As to `CC(C)(C)c1ccc(OC(=O)Nc2cc(C(F)(F)F)ccc2Cl)c(Br)c1`, the T/C was 90 % of control under setting [4], 97 % of control under setting [5] and 97 % of control under setting [6].

In the case of `O=[N+]([O-])c1ccc(/C=C/C=C/c2ccccc2)cc1Cl`, the T/C is 102 % of control under setting [7], 102 % of control under setting [8] and 101 % of control under setting [9].

Regarding `Clc1[nH]cnc1Br`, the T/C under setting [10] was 107 % of control, the T/C under setting [1] is 93 % of control and the T/C under setting [11] was 104 % of control.

Turning to `CCOc1ccc([N+](=O)[O-])cc1C1N(Cc2ccccc2OC)CCCN1Cc1ccccc1OC`, the T/C under setting [2] is 98 % of control; the T/C under setting [3] is 98 % of control; the T/C (endpoint: mean survival time, dose: 400.0 mg/kg/injection, schedule: Q01DX001 (ip), vehicle: carboxymethylcellulose (CMC)) was 104 % of control.

As for `COc1ccc([N+](=O)[O-])cc1NC(=O)Cc1ccccc1`, the T/C is, setting by setting: under setting [12], 107 % of control; under setting [13], 101 % of control; (endpoint: mean survival time, dose: 400.0 mg/kg/injection, schedule: Q01DX009 (ip), vehicle: saline with Tween-80) 91 % of control.

Regarding `COc1ccc(C(=O)N/N=C/c2cccc3ccccc23)cc1`, the T/C runs as follows: under setting [4], 105 % of control; under setting [5], 103 % of control; under setting [6], 108 % of control.

Turning to `O=c1[nH]c2cscc2c(=O)n1O`, the T/C is, setting by setting: under setting [7], 103 % of control; under setting [8], 97 % of control; under setting [9], 107 % of control.

As to `N#CCCC1=C(O)CCCC1=O`, the T/C (endpoint: mean survival time, dose: 50.0 mg/kg/injection, schedule: Q01DX009 (ip), vehicle: saline with Tween-80) is 93 % of control; the T/C under setting [12] was 93 % of control; the T/C under setting [13] was 97 % of control.

With `CCC(=O)Nc1cccc(OC(=O)NC2CCCCC2)c1`, the T/C is, setting by setting: under setting [10], 102 % of control; under setting [1], 98 % of control; under setting [11], 91 % of control.
